# Values of other authors as cited in patent US12569481B2, “Methods of treatment for gastrointestinal motility disorders” (Vanderbilt University, priority 2020, dated 2026).
# Tests used:
# [1] = room temperature; over-encapsulated 500 mg extended release tablets
# [2] = molecular target: KCNH2-encoded hERG K+ channels (Homo sapiens, UniProt Q12809); settings: channels found in cardiac muscle and intestinal smooth muscle
# [3] = system: human colon muscle strips
# [4] = not given; remark: listed apart in the source
# [5] = molecular target: cardiac late sodium current (late INa) (Homo sapiens, UniProt Q14524)
# cardiac late sodium current (late INa), sequence (Q14524 whole entry): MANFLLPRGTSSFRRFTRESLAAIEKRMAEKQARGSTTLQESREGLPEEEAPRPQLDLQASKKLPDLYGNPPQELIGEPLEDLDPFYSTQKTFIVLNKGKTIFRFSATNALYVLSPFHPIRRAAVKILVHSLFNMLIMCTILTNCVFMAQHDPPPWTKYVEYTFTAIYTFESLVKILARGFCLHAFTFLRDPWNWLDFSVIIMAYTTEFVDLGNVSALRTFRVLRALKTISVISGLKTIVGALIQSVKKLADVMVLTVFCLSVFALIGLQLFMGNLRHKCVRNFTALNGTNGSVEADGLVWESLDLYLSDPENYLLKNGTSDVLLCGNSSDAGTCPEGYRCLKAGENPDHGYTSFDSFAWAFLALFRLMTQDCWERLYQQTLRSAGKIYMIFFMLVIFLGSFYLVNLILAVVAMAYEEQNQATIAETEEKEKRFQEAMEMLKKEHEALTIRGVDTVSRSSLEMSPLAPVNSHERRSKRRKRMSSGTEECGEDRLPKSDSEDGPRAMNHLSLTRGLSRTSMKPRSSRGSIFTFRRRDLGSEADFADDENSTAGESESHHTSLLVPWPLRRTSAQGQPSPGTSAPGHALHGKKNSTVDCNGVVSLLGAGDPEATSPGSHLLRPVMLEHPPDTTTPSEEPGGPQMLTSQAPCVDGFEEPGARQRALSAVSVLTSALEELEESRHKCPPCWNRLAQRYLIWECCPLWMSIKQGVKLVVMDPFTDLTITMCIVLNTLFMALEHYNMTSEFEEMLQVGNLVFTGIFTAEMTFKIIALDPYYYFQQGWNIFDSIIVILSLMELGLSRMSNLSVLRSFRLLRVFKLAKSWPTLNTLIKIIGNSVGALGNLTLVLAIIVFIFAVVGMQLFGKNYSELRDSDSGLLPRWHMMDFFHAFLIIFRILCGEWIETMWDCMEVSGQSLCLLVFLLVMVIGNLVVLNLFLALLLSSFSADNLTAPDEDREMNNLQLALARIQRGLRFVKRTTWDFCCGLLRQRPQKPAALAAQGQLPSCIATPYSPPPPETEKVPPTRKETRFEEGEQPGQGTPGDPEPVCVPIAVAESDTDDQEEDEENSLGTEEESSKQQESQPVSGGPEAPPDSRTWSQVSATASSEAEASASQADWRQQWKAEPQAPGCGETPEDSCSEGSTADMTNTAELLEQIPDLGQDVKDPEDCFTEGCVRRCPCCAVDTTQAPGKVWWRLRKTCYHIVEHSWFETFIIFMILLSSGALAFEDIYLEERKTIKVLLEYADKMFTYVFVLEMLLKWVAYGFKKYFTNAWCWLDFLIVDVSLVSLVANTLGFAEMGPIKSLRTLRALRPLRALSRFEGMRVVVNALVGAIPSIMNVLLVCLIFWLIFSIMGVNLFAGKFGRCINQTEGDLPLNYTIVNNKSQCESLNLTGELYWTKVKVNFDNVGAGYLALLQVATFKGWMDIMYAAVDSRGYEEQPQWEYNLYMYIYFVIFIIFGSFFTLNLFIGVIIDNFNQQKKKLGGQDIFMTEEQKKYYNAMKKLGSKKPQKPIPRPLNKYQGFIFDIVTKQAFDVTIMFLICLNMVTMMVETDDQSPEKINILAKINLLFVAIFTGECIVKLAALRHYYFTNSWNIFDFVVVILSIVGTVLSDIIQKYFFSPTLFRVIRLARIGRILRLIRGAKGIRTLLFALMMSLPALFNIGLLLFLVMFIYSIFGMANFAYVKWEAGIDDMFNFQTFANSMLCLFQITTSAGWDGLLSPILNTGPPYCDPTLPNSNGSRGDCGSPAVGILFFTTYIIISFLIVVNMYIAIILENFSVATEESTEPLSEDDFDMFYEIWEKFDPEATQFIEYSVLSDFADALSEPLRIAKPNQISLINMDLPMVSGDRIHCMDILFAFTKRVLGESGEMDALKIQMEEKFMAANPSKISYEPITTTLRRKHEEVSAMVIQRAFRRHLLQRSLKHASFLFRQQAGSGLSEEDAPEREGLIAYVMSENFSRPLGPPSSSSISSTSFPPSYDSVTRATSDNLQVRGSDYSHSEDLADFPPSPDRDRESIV
# [6] = molecular target: T1, sodium current in human colon SMCs (Homo sapiens, UniProt Q14524)
# T1 construct: sodium current in human colon SMCs; endogenous in cells; host or cells: human colon smooth muscle cells (SMCs)
# KCNH2-encoded hERG K+ channels, sequence (Q12809 whole entry): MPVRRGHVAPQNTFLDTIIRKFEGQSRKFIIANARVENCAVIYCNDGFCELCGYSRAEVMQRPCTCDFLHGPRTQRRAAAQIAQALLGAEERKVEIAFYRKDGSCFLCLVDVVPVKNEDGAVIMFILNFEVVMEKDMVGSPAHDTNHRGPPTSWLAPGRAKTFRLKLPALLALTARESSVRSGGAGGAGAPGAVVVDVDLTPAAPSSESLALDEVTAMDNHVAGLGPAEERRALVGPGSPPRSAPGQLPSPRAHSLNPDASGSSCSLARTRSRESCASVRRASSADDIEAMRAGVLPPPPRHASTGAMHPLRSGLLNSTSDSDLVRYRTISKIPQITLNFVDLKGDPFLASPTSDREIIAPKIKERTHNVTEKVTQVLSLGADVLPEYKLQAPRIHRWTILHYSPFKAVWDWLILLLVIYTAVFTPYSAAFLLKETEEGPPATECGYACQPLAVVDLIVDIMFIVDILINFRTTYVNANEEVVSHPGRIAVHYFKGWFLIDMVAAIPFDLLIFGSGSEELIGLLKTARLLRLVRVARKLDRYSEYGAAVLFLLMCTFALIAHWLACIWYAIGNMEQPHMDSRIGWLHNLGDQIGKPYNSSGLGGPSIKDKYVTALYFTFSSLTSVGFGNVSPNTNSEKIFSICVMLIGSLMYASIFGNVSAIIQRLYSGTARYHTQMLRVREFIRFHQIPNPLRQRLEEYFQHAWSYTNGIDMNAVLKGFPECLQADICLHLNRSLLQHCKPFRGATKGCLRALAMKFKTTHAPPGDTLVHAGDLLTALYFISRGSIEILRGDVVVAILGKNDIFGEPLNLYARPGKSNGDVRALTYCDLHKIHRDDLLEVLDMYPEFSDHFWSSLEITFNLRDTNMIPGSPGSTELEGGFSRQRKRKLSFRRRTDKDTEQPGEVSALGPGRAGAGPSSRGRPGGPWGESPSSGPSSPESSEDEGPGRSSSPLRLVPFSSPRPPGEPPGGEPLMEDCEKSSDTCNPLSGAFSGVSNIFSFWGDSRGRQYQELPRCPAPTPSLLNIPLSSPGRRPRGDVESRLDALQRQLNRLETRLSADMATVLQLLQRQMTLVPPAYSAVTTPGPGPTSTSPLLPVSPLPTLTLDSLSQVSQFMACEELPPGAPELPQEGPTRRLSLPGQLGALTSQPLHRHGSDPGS
structure (smiles),measurement,setting,value
COc1ccccc1OCC(O)CN1CCN(CC(=O)Nc2c(C)cccc2C)CC1 (centres unmarked) [Ranolazine],storage time,[1],up to 12 months
same,block of KCNH2-encoded hERG K+ channels,[2],block
same,effect on contractility,[3],decreases contractility
same,metabolism,cytochrome P-450 3A enzyme (CYP3A) pathway in the liver,rapidly metabolized
same,half-life,in vivo,seven
same,ingested ranolazine excreted in the urine,"ingested, urine",At least 70%
same,patients experiencing the most common side effects,"[4]; dizziness, nausea, constipation, and headache",less than 2%
same,safety and tolerability,[4]; used properly and not concurrently with contraindicated drugs,safe and well-tolerated
same,selectivity for late INa vs peak INa,[5]; late INa vs peak INa,nine
same,inhibition of cardiac late sodium current (late INa),[5]; residual Na+ flowing after peak INa during an action potential,inhibitor
same,effect on peak amplitude and mechanosensitivity of sodium current,[6],blocks both peak amplitude and mechanosensitivity
